# Results as given in US10485844B2, “Methods for treating severe atopic dermatitis by administering an IL-4R inhibitor” (Regeneron Pharmaceuticals, Inc., priority 2016, dated 2019).
# “Also recorded” adds a separate entry of the source. Marks after values point to notes of the source that are not given here.
# Assays:
# [1] = system: pediatric patients with moderate-to-severe AD (adolescents) or severe AD (children); assay: Phase 2a open-label ascending-dose study of dupilumab in pediatric AD (efficacy and safety); assay type: in vivo, human; details: for patients who achieved IGA 0-1 / peak pruritus NRS improved by / baseline EASI improved by: Week 12; for baseline EASI improved by: after repeated weekly doses; for reduction in EASI score from baseline: week 2
# Protocol: This Example describes a phase 2a, multicenter, open-label, ascending-dose, sequential-cohort study (NCT02407756) which included adolescents (12-17 years) with moderate-to-severe AD and children (6-11 years) with severe AD, uncontrolled by topical medications. Patients received 2 mg/kg or 4 mg/kg single-dose subcutaneous dupilumab with 8 weeks follow-up, followed by 4 weekly 2 mg/kg or 4 mg/kg doses.
# This was conducted as a phase 2a, multicenter, open-label, ascending dose, sequential cohort study investigating the safety, tolerability, pharmacokinetics (PK), immunogenicity, and efficacy of single-dose and repeat-doses of subcutaneously administered (SC) dupilumab in pediatric patients with moderate-to-severe AD (for adolescents ≥12 to <18 years of age) or severe AD (for children ≥6 to <12 years of age) that was not adequately controlled by topical treatments.
# Two sequential ascending SC dose cohorts were planned: dose cohort 1 (2 mg/kg) and dose cohort 2 (4 mg/kg) up to a maximum dose of 300 mg. Within each dose cohort, approximately 36 to 40 patients were planned to be enrolled in 2 age subsets: subset A (adolescents ≥12 to <18 years of age) and subset B (children ≥6 to <12 years of age). Enrollment and study dosing started with cohort 1A (2 mg/kg, adolescent age subset) and proceeded in sequence to cohort 1B (2 mg/kg, children ≥6 to <12 years of age subset), cohort 2A (4 mg/kg, adolescent age subset), and cohort 2B (4 mg/kg, children ≥6 to <12 years of age subset); a safety review of data from the previous cohort(s) was performed before proceeding to the next cohort.
# The study consisted of a screening period (day −35 to day −1), a baseline visit, Part A (including a single-dose treatment followed by an 8-week semi-dense PK sampling period), and Part B (including a 4-week repeat-dose treatment period [4 weekly doses] followed by an 8-week follow-up period).
# Sterile dupilumab drug product 150 mg/mL was provided in an aqueous buffered vehicle, pH 5.0. It was supplied in a 5-mL vial containing 2.5 mL (150 mg/mL) with a withdrawable volume of 2.0 mL or 300 mg of dupilumab. Study drug was administered SC by the investigator or other qualified study personnel at the following dose and dosing schedules: • For dose cohort 1: 2 mg/kg at day 1 as a single dose in Part A, then weekly at day 1 to week 3 in Part B as repeat doses • For dose cohort 2: 4 mg/kg at day 1 as a single dose in Part A, then weekly at day 1 to week 3 in Part B as repeat doses
# The primary objective was characterizing the PK profiles of dupilumab in pediatric AD patients aged ≥6 to <18 years. The secondary endpoints were: • Incidence of TEAEs • Percent change from baseline in Eczema Area and Severity Index (EASI) • Percent change from baseline in SCORing Atopic Dermatitis (SCORAD) score • Percent change from baseline in Pruritus Numerical Rating Scale (NRS) • Percentage of patients with an IGA score of 0 or 1 • Change from baseline in % BSA affected by AD Study Variables and Procedures
# Safety and tolerability was assessed by vital signs, physical examinations, clinical laboratory tests, and clinical evaluations. Patients were asked to monitor all adverse events (AEs) experienced from the time of informed consent/assent until their last study visit. Serum samples were collected for assay of dupilumab levels, and PK parameters were calculated using the dupilumab concentration data. Serum samples were collected for assay of ADA, and exploratory analyses. Efficacy was assessed during the study at specified clinic visits using the Pruritus NRS, SCORAD, and EASI that measure the extent and severity of AD, and the IGA that rates the overall severity of AD.
# [2] = system: adult patients with severe AD; assay: 16-week randomized placebo-controlled trial of dupilumab + TCS in adults with severe AD not adequately controlled with or intolerant to cyclosporine A (efficacy and safety); details: for % change from baseline in SCORAD / % change in baseline in weekly average of peak daily pruritus NRS / % patients with EASI-75 / % patients with IGA 0 or 1 and reduction from baseline of ≥2 points / Change from baseline in % BSA / Change from baseline in DLQI / Change from baseline in HADS / Change from baseline in POEM / % patients with EASI-75 for patients with prior CSA use / % patients with reduction of weekly average peak daily pruritus NRS ≥4 from baseline: week 16; for % patients with EASI-75 for patients with prior CSA use: N = 69; for % patients with reduction of weekly average peak daily pruritus NRS ≥4 from baseline: N = 94;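 on all read-outs here: subcutaneous dosing after a 600 mg loading dose on day 1, with standardized medium-potency TCS background from day −14, compared against matching injectable placebo arm, 1:1:1 randomization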
# Description: The study comprises a 2-week screening period, a 2-week medium-potency TCS standardization period, a 16-week treatment period, and a 12-week safety follow up period. […] All patients receive concomitant medium-potency TCS as background concomitant therapy to reflect standard of care treatment of this severe population.
# Starting on day −14, all patients initiate a standardized TCS treatment regimen, and continue the standardized medium-potency regimen through the end of the treatment period (week 16). During the 12-week follow-up period, they may continue to receive TCS at the discretion of the investigator, for intolerable AD disease activity.
# Patients who continue to meet eligibility criteria at baseline (day 1) undergo assessments and are randomized in a 1:1:1 ratio to receive either once-weekly (qw) or every 2 week (q2w) subcutaneous (SC) injections of 300 mg dupilumab (following an SC loading dose of 600 mg on day 1), or matching injectable placebo, including the placebo for the loading dose. During weeks in which dupilumab is not administered (in the q2w regimen), patients receive injectable placebo.
# Patients receive either qw SC injections of 300 mg dupilumab (following a loading dose of 600 mg on day 1), or q2w SC injections of 300 mg dupilumab (following a loading dose of 600 mg on day 1) during the 16-week treatment period. During weeks in which dupilumab is not administered (in the q2w regimen), patients receive injectable placebo.
# The primary endpoint in the study is: the proportion of patients with Eczema Area and Severity Index (EASI) 75 (≥75% improvement from baseline) at week 16.
# ⋅ Proportion of patients with EASI 75 (75% improvement from baseline) at week 16 for patients with prior CSA use; ⋅ Proportion of patients with IGA 0 or 1 (on a 5-point scale) and a reduction from baseline of points at week 16; ⋅ Percent change from baseline to week 16 in the pruritus numerical rating scale (NRS); ⋅ Proportion of patients with improvement (reduction) of pruritus NRS at week 16; ⋅ Percent change from baseline to week 16 in the EASI score; ⋅ Change from baseline to week 16 in percent body surface area (BSA); ⋅ Percent change from baseline to week 16 in the SCORing Atopic Dermatitis (SCORAD); ⋅ Proportion of patients with SCORAD 50 (≥50% improvement from baseline) at week 16; ⋅ Percent change from baseline to week 16 in the Global Individual Signs Score (GISS) (erythema, infiltration/papulation, excoriations, lichenification); ⋅ Change from baseline to week 16 in the Dermatology Life Quality Index (DLQI); ⋅ Change from baseline to week 16 in the Patient Oriented Eczema Measure (POEM); ⋅ Change from baseline to week 16 in the Hospital Anxiety and Depression Scale (HADS); ⋅ Percent change from baseline to week 2 in the pruritus NRS; ⋅ Mean weekly dose of TCS through week 16
# A variety of parameters are collected during the study to assess efficacy/effectiveness of dupilumab including measures of AD severity, use of concomitant treatment for AD, and patient reported measures of AD symptoms and QOL. Efficacy is assessed using pruritus NRS, pruritus categorical scale, POEM, HADS, DLQI, the European Quality of Life-5 Dimensions (EQ-5D), Patient Global Assessment of Disease, Patient Global Assessment of Treatment, Asthma Control Questionnaire (ACQ-5), the Sino-Nasal Outcome Test (SNOT-22), assessment of sick leave/missed school days, IGA, EASI, BSA of involvement of AD, GISS and SCORAD.
# [3] = 300 mg dupilumab q2w + TCS (N = 107), 16-week treatment period
# [4] = 300 mg dupilumab q2w + TCS, Week 16
# [5] = expected at the end of the study period
substance,measurement,setting,value
"dupilumab: fully human anti-IL-4R antibody; heavy chain SEQ ID NO: 9, light chain SEQ ID NO: 10",patients who achieved IGA 0-1,[1]; adolescent 2 mg cohort,10%
same,peak pruritus NRS improved by,[1]; adolescent 2 mg cohort,30.8%
same,baseline EASI improved by,[1]; adolescent 2 mg cohort,66.4%
same,patients who achieved IGA 0-1,[1]; adolescent 4 mg cohort,35%
same,peak pruritus NRS improved by,[1]; adolescent 4 mg cohort,37.6%
same,baseline EASI improved by,[1]; adolescent 4 mg cohort,69.7%
same,reduction in EASI score from baseline,"[1]; adolescent patients, single dose 2 mg/kg",34%
same,reduction in EASI score from baseline,"[1]; adolescent patients, single dose 4 mg/kg",51%
same,patients who achieved IGA 0-1,[1]; children 2 mg/kg cohort,16.7%
same,peak pruritus NRS improved by,[1]; children 2 mg/kg cohort,41.6%
same,baseline EASI improved by,[1]; children 2 mg/kg cohort,76.2%
same,patients who achieved IGA 0-1,[1]; children 4 mg cohort,21.1%
same,peak pruritus NRS improved by,[1]; children 4 mg cohort,39.6%
same,baseline EASI improved by,[1]; children 4 mg cohort,63.4%
same,reduction in EASI score from baseline,"[1]; children, single dose 2 mg/kg",37%
same,reduction in EASI score from baseline,"[1]; children, single dose 4 mg/kg",33%
same,safety and tolerability,"[1]; single and repeated weekly doses of 2 mg/kg and 4 mg/kg, both pediatric age groups",No new safety signals; also recorded: generally safe and well tolerated
same,"DLQI score, mean change from baseline to Week 16 (±SE)",[2]; 300 mg dupilumab q2w + TCS,−9.7 (0.64)***^
same,DLQI score: Proportion of Patients with ≥4-point improvement at Week 16,[2]; 300 mg dupilumab q2w + TCS,85 (79.4)*** %
same,"POEM score, mean change from baseline to Week 16 (±SE)",[2]; 300 mg dupilumab q2w + TCS,−11.7 (0.68)***
same,POEM score: Proportion of patients with ≥4-point improvement at Week 16,[2]; 300 mg dupilumab q2w + TCS,89 (83.2)*** %
same,Proportion of patients with DLQI 0 or 1 at Week 16,[2]; 300 mg dupilumab q2w + TCS,32 (29.9)** %
same,"Atopic dermatitis (AE), n (%)",[2]; [3],(7.5) %
same,"Conjunctivitis allergic, n (%)",[2]; [3],(15.0) %
same,"Conjunctivitis, n (%)",[2]; [3],(11.2) %
same,"Headache, n (%)",[2]; [3],(9.3) %
same,"Nasopharyngitis, n (%)",[2]; [3],(20.6) %
same,"Number of patients with TEAEs, n (%)",[2]; [3],(72.0) %
same,"Rhinitis allergic, n (%)",[2]; [3],(6.5) %
same,"DLQI: Proportion of patients reporting “no impact” or “little impact”: Affected social, leisure activity",[2]; [4],(91.6)*** %
same,DLQI: Proportion of patients reporting “no impact” or “little impact”: Caused any sexual difficulties,[2]; [4],(93.5)*** %
same,"DLQI: Proportion of patients reporting “no impact” or “little impact”: How embarrassed, self-conscious",[2]; [4],(86.9)*** %
same,"DLQI: Proportion of patients reporting “no impact” or “little impact”: How itchy, sore, painful, stinging",[2]; [4],(83.2)*** %
same,DLQI: Proportion of patients reporting “no impact” or “little impact”: How much a problem is treatment,[2]; [4],(89.7)*** %
same,DLQI: Proportion of patients reporting “no impact” or “little impact”: Influenced clothes you wear,[2]; [4],(84.1)*** %
same,"DLQI: Proportion of patients reporting “no impact” or “little impact”: Interfered shopping, home, yard",[2]; [4],(93.5)*** %
same,DLQI: Proportion of patients reporting “no impact” or “little impact”: Made it difficult to do any sports,[2]; [4],(90.7)*** %
same,DLQI: Proportion of patients reporting “no impact” or “little impact”: Prevented/problem at working or studying,[2]; [4],(91.6)*** %
same,"DLQI: Proportion of patients reporting “no impact” or “little impact”: Problem partner, friends, relative",[2]; [4],(95.3)*** %
same,POEM: Proportion of patients reporting ‘no days’ or ‘1-2 days’: Last week days been weeping/oozing,[2]; [4],(87.9)*** %
same,POEM: Proportion of patients reporting ‘no days’ or ‘1-2 days’: Last week days skin been bleeding,[2]; [4],(84.1)*** %
same,POEM: Proportion of patients reporting ‘no days’ or ‘1-2 days’: Last week days skin been cracked,[2]; [4],(75.7)*** %
same,POEM: Proportion of patients reporting ‘no days’ or ‘1-2 days’: Last week days skin been flaking off,[2]; [4],(65.4)*** %
same,POEM: Proportion of patients reporting ‘no days’ or ‘1-2 days’: Last week days skin been itchy,[2]; [4],(45.8)*** %
same,POEM: Proportion of patients reporting ‘no days’ or ‘1-2 days’: Last week days skin felt dry or rough,[2]; [4],(59.8)*** %
same,POEM: Proportion of patients reporting ‘no days’ or ‘1-2 days’: Last week nights sleep been disturbed,[2]; [4],(83.2)*** %
same,"SCORAD VAS sleep loss, LS mean percent change from baseline to Week 16 (±SE)","[2]; 300 mg dupilumab q2w + TCS, n = 98",−61.2 (34.38)* percent
same,"SCORAD VAS sleep loss, LS mean change from baseline to Week 16 (±SE)","[2]; 300 mg dupilumab q2w + TCS, n = 106",−3.0 (0.25)***^
same,Pruritus NRS: Proportion of patients with ≥3-point improvement at Week 16,"[2]; 300 mg dupilumab q2w + TCS, patients with baseline peak pruritus NRS ≥3",56/99 (56.6)*** %
same,Pruritus NRS: Proportion of patients with ≥4-point improvement at Week 16,"[2]; 300 mg dupilumab q2w + TCS, patients with baseline peak pruritus NRS ≥4",43/94 (45.7)*** %
same,deaths during the study,[2]; all treatment groups,No deaths
same,skin infections vs placebo,[2]; combined dupilumab-treated groups,fewer skin infections
same,% change in EASI score from baseline to week 16,[2]; dupilumab 300 mg q2w + TCS,−79.8%
same,Mean weekly dose of TCS use during the treatment period,[2]; dupilumab 300 mg q2w + TCS,15.0
same,% change from baseline in SCORAD,[2]; dupilumab 300 mg q2w + TCS,−58.3%
same,% change in baseline in weekly average of peak daily pruritus NRS,[2]; dupilumab 300 mg q2w + TCS,−53.9%
same,% patients with EASI-75,[2]; dupilumab 300 mg q2w + TCS,62.6%
same,% patients with IGA 0 or 1 and reduction from baseline of ≥2 points,[2]; dupilumab 300 mg q2w + TCS,40.2%
same,Change from baseline in % BSA,[2]; dupilumab 300 mg q2w + TCS,−39.2 % BSA
same,Change from baseline in DLQI,[2]; dupilumab 300 mg q2w + TCS,−9.6
same,Change from baseline in HADS,[2]; dupilumab 300 mg q2w + TCS,−6.1
same,Change from baseline in POEM,[2]; dupilumab 300 mg q2w + TCS,−11.9
same,% patients with EASI-75 for patients with prior CSA use,[2]; dupilumab 300 mg q2w + TCS,58.0%
same,% patients with reduction of weekly average peak daily pruritus NRS ≥4 from baseline,[2]; dupilumab 300 mg q2w + TCS,45.7%
same,% change in EASI score from baseline to week 16,[2]; dupilumab 300 mg qw + TCS,−78.2%
same,Mean weekly dose of TCS use during the treatment period,[2]; dupilumab 300 mg qw + TCS,17.5
same,% change from baseline in SCORAD,[2]; dupilumab 300 mg qw + TCS,−62.4%
same,% change in baseline in weekly average of peak daily pruritus NRS,[2]; dupilumab 300 mg qw + TCS,−51.7%
same,% patients with EASI-75,[2]; dupilumab 300 mg qw + TCS,59.1%
same,% patients with IGA 0 or 1 and reduction from baseline of ≥2 points,[2]; dupilumab 300 mg qw + TCS,39.1%
same,Change from baseline in % BSA,[2]; dupilumab 300 mg qw + TCS,−37.5 % BSA
same,Change from baseline in DLQI,[2]; dupilumab 300 mg qw + TCS,−8.9
same,Change from baseline in HADS,[2]; dupilumab 300 mg qw + TCS,−5.2
same,Change from baseline in POEM,[2]; dupilumab 300 mg qw + TCS,−11.4
same,% patients with EASI-75 for patients with prior CSA use,[2]; dupilumab 300 mg qw + TCS,56.5%
same,% patients with reduction of weekly average peak daily pruritus NRS ≥4 from baseline,[2]; dupilumab 300 mg qw + TCS,40.4%
same,Injection site reactions vs placebo,"[2]; dupilumab groups, higher rate in 300 mg qw than 300 mg q2w, no severe ISRs",more common
same,tolerability / safety profile,"[2]; dupilumab plus concomitant TCS, 16-week treatment period",generally well tolerated
same,incidence of conjunctivitis vs placebo,"[2]; dupilumab-treated groups, more events in 300 mg Q2W than 300 mg QW",higher incidence
same,improvement in at least one AD-associated parameter as compared to placebo,[2]; [5],significant improvement
same,less TCS used than placebo,[2]; [5],up to 50%
same,Serious adverse events,[2]; in each treatment group,2 events
